From patent US20020114804A1, “A METHOD OF TREATING INFECTION OF SUTURES AND PROSTHETIC DEVICES” (priority 1996, published 2002)

Legend:
Assay type in all cases: cell-based, human
PMNs [1] = assay: PMN migration through gels of Matrigel or collagen IV; conditions: added to the bottom chamber
Description: Becton-Dickinson cell culture inserts (pore sizes 3 or 8 μm: Franklin Lakes, N.J.) were overlaid with the following proteins:
Collagen type IV and Matrigel matrices: 0.1 ml PBS containing 100 μg human placental collagen IV (Fluka Chemical Corp., Ronkonkoma, N.Y.), or 80 μg of reconstituted basement membrane proteins (Matrigel, Collaborative Research, Bedford, Mass.), was placed into each insert and allowed to gel at room temperature for 24 hrs.
PMNs were prepared from fresh heparinized blood from healthy adult volunteers by sedimentation on Ficoll-Hypaque gradients. Contaminating red blood cells were removed by hypotonic lysis, as described (7). The purity of PMN isolated by this method is >95% as determined by Wright-Giemsa staining (7). 10^6 PMNs in 250 μl of PBS supplemented with 5.5 mM glucose and 0.1% human serum albumin (PBSG-HSA), were placed in the upper compartment of each insert and incubated for 0-6 hrs at 37° C. in a humidified atmosphere containing 95% air/5% CO2. At the times and concentrations specified, chemoattractants/cytokines were added to the top or bottom compartment in 250 μl of PBSG-HSA. […] The medium in each lower compartment was collected and its content of PMNs was determined using either a Coulter Counter or a hemocytometer. […] Counts are expressed as the average number of PMNs that migrated into the lower compartment. […]

monocytes = assay: Monocyte migration through Matrigel or Matrigel/tenascin coated filters; conditions: Matrigel alone
Excerpt: Mononuclear cells were isolated by centrifugation of heparinized human blood on Ficoll-Hypaque gradients as described (65, 66). The mononuclear cell fraction was resuspended in RMPI 1640 medium supplemented with 10% pooled human serum or autologous serum and used immediately for monocyte migration studies. For some experiments, monocytes were obtained by centrifugation of whole blood or of white blood cells concentrated from a unit of blood (leukopak), on Nycodenz gradients as described (39). More than 90% of the nucleated cells obtained by this Nycodenz method were monocytes, as assessed by their ability to phagocytose IgG-coated red blood cells.
Cultured monocytes were prepared by allowing 10^7 total mononuclear cells, suspended in 10 ml of RMPI 1640 medium supplemented with 10% pooled human serum (1640+HS), or 10% autologous serum (1640+AS), to adhere to Falcon T-150 tissue culture Petri dishes for 2 h at 37° C. Non-adherent cells were removed by washing, leaving an adherent cell population consisting of greater than 98% monocytes as measured by their capacity to phagocytose IgG coated sheep red blood cells. For migration studies, monocytes were maintained in culture for 24 h in RPMI 1640+HS or AS, and detached from the dishes by gentle pipetting of 10 ml of ice cold phosphate buffered saline (without Ca^2+ or Mg^2+) containing 1.0 mM EDTA. The cells recovered were resuspended in RPMI-1640+HS as described (65).
Cell culture inserts containing polyethylene terephthalate filters, 8-μm pore size (Becton-Dickinson), were overlaid with 0.1 ml of Matrigel (20-25 μg protein/filter) (Collaborative Research, Bedford, Mass.), and incubated at room temperature until they dried. These Matrigel-coated filters were washed with phosphate buffered saline containing 1.0 mM Mg^2+ and 1.0 mM Ca^2+ (PBS). 0.1 ml of a PBS solution (pH 7.2) containing the indicated amount of purified chick brain tenascin was added to some of the inserts. The filters were incubated at room temperature until they dried. These protein-coated filters were washed again with PBS and used within 12 h for cell migration studies. To prepare collagen I-coated inserts, filters were coated with rat tail collagen I (ICN Biochemicals, Costa, Mesa, Calif.) (400 μg/ml in PBS), by adding 0.1 ml of this solution to an insert and incubating the inserts at room temperature for 24 h. Some of these collagen I-coated filters were then incubated with tenascin as described above.
Monocytes: Cell culture inserts were placed in 16 mm wells containing 0.5 mls of RPMI-1640+HS or AS in the presence or absence of a chemoattractant. 0.5 ml of RPMI-1640+HS or AS serum containing between 2-10×10^5 mononuclear phagocytes was added to the upper chamber of the inserts and the inserts were placed in a humidified CO2 incubator at 37° C. After 24 h the medium in the lower chamber was recovered and its cell content assayed using either a Coulter counter or a hemocytometer. […] Cell counts reported are the average number of cells recovered from the medium in the lower compartment of chemotaxis chambers. Over 90% of the cells in the lower chamber were identified as monocytes based on their morphology, their capacity to phagocytose IgG coated sheep red cells, and their staining with fluorescein-conjugated anti α,β monoclonal antibody (Oncogene Sciences, Uniondale, N.Y.). Unless otherwise indicated, all values are the average of duplicate samples run in parallel in a representative experiment. Each experiment was repeated at least three times with similar results.

PMNs [2] = assay: Exclusion of fluorescein-conjugated F(ab)2 anti-fibrin from zones of contact between PMNs and fibrin
Excerpt: Therefore, the exclusion of fluorescein-conjugated F(ab)2 anti-fibrin from zones of contact between LTB4- or IL-8-stimulated PMNs and fibrin was used as a measure of the interaction of these cells with fibrin-coated surfaces. About 50% of fibrin-adherent LTB4- or IL-8-stimulated PMNs formed adhesive zones that excluded this high molecular weight (100 kDa.) probe. As expected from studies with Rh-PEG (FIG. 8), >99% of fibrin-adherent TNF- or fMLP-stimulated PMNs excluded fluorescein-conjugated F(ab)2 anti-fibrin from their zones of contact with fibrin (data not shown).

CCCCC/C=C\C[C@@H](O)/C=C/C=C/C=C\[C@@H](O)CCCC(=O)O [LTB4, leukotriene B4]
PMN migration through gels of Matrigel or collagen IV (PMNs [1]): stimulated PMN migration
Cultured monocytes that migrated through Matrigel-coated inserts (monocytes): ~15%
Freshly isolated human monocytes that migrated through Matrigel-coated inserts (monocytes): About 20%
Fibrin-adherent PMNs that excluded fluorescein-conjugated F(ab)2 anti-fibrin (100 kDa) (PMNs [2]): About 50%
